# Measurements taken from patent US8242152B2, “Use of 4-[(4-thiazolyl)phenoxy]alkoxy-benzamidine derivatives for the prophylaxis and treatment of osteoporosis” (Dong Wha Pharmaceutical Co., Ltd., priority 2001, dated 2012).
# Where “and” joins values, the source holds several entries; their conditions need not be identical. Identical values can stand only once.
# Tests used:
# [1] = tested on: LTB4-induced osteoclast formation; test: LTB4-induced osteoclast formation in rabbit osteoclast cultures, co-treatment and pre-treatment (Example 6); assay type: cell-based
# Experimental: (§1) Rabbit osteoclasts were isolated as described by Victoria Tai's report (Doctoral Dissertation, 1997, Graduate Department of Pharmacology, University of Toronto) and Rraser P. Coxon et al. (Methods in Molecular Medicine, vol 80). Neonatal rabbits (New Zealand White) were sacrificed by ether-inhaling method under a hood. The removed long bones were dissected free of attached soft tissues and placed into ice-cold PBS. The long bones were cut longitudinally and mechanically curetted in 10 ml medium 199 with antibiotics (10 ug/ml penicillin G and 50 ug/ml gentamycin) in a glass Petri dish. Each bone was curetted with a scalpel blade and was finely minced. The fragments were then vigorously agitated by pipetting up and down using a pasteur pipette and vortex-mixed for 30 seconds. The fragments were allowed to settle and the cell suspension was then transferred to a 50 ml tube and the previous step repeated three times to a total volume of 40 ml. The bone fragments were allowed to settle (>1 min). The cell suspension was then transferred to a new 50 ml tube, passed through a 40 um cell strainer and centrifuged at 200 g for 8 minutes. The supernatant was removed and the pellet was immediately resuspended in α-MEM with 2% FBS (bicarbonate buffered medium).
# (§2) 40 uL droplets of osteoclast-containing suspensions were plated onto 60 mm tissue culture plastic dishes or on dentine slices in 96-well microtiter plates in 2% medium. The cells were allowed ninety minutes for attachment before the addition of 2 mL α-MEM with 2% FBS. After 24 hr culture, cells were washed to remove non-adherent cells and replaced with fresh medium as describes below.
# After 24 hr in culture, the medium was removed and replaced with fresh medium containing both LTB4 receptor antagonist (1000 nM) and LTB4 (100 nM) or both DW1350 (1000 nM) and LTB4 (100 nM). The cultures were continued for an additional 48 hrs.
# After 6 hrs in culture, the medium was removed and cells were pretreated with LTB4 receptor antagonists such as LY292728 (Journal of Medical Chemistry, 1995, vol. 38, No. 10, p 4411-4432), SB209247 (Journal of Medical Chemistry, 1996, vol. 39, No. 19, p 3837-3841), LY293111(Journal of Medical Chemistry, 1995, vol. 38, No. 10, p 4411-4432) and LY223982 (Journal of Medical Chemistry, 1993, vol. 36, p 3333-3340) or DW1350-containing medium and culture continued for 18 hrs. The medium was replaced with medium containing both LTB4 receptor antagonist and LTB4 or DW1350 and LTB4. The cultures were continued for an additional 48 hrs.
# (§3) All cells were cultured at 37° C. in a humidified atmosphere of 95% air and 5% CO2 in bicarbonate buffered medium at pH 7.4.
# (§4) Differentiated osteoclasts are multinucleated cells and have specific enzyme activity, such as ‘tartrate-resistant acid phosphatase (TRAP)’. Therefore, Osteoclast formation was determined by counting the number of TRAP-positive multinucleated cells (TRAP(+) MNCs).
# (§5) After culture, the cells were fixed with 10% neutral buffered formalin for 30 min at 4° C., washed twice in distilled water and stained for TRAP activity by incubating with substrate. The number of TRAP(+)MNC with more than 2 nuclei was counted under photomicroscope.
# (§6) Results were expressed as mean number of TRAP(+)MNC±SD of All experiments were done at least twice. Statistical analysis was performed for each experiment by student t-test.
# rabbit osteoclasts = test: TRAP(+) MNC formation in isolated rabbit osteoclast cultures, single treatment without LTB4 (Example 6); assay type: cell-based; conditions: for number of TRAP(+) MNCs / osteoclast formation: 1000 nM, single treatment without LTB4, dentine slices, 48 hrs (FIG. 3-8)
# Experimental: as §1, §2
# After 24 hr in culture, the medium was replaced with fresh medium containing control, LTB4 receptor antagonists (1000 nM), DW1350 (10, 100 and 1000 nM) or LTB4 (100 nM) and the cultures were continued for an additional 48 hrs.
# as §3, §4, §5, §6
# LTB4 receptor = LTB4 receptor (Homo sapiens, UniProt Q15722); conditions: cited from earlier work
# ovariectomized ddY mice = test: Prophylactic effects in ovariectomized ddY mouse model (estrogen-deficient osteoporosis); assay type: in vivo; conditions: for Cbt, cortical bone thickness / TBV, trabecular bone volume / Tbl, trabecular bone length / Tbn, trabecular bone number / Tbt, trabecular bone thickness: 10 mg/kg oral once a day for 6 weeks (F10, D10)
# Experimental: The effects of a drug would be based on histomorphometric changes of trabecular bone and thickness cortical bone in this model.
# The objective of present study is to observe the prophylactic effect of DW1350MSA, and administration of drug was initiated 3 days after ovariectomy for prophylaxis study.
# (§7) Twenty-five female ddY mice (6-wk old upon receipt, SLC, Japan) were used after acclimatization for 7 days. Animals were allocated 5 per polycarbonate cage in a temperature (20-25° C.) and humidity (30-35%) controlled room. Light:dark cycle was 12 hr:12 hr and feed (Samyang, Korea) and water were supplied free to access. 20 mice were ovariectomized and 5 mice were sham operated. For prophylaxis study, treatment was initiated 3 days after ovariectomy and then each sample was administrated for 6 weeks.
# DW1350MSA was dissolved in injectable distilled water and administered at a dosage volume of 10 ml/kg by oral gavage.
# 3) Operation • A. Sham operation: Bilateral ovaries were exposed by incision of skin and abdominal muscles, (about 3 cm) after that closed by skin suture. • B. Ovariectomy: After exposure of bilateral ovaries, they were removed. After that closed by routine methods. • C. Operation was conduct under Ketamine hydrochloride (M.W.=256.8; 23076-35-9, ICN Biochemicals Inc., USA) and Xylazine hydrochloride (M.W.=274.19; 116-00512, Wako Pure Chemical Industries Ltd., Japan) anesthesia.
# After that, embedded in paraffin, sectioned (3˜4 um) and stained with hematoxylin-eosin stain.
# Histomorphometric changes of tibia and femur were evaluated. All histomorphometric indices including trabecular bone volume (TBV, %), thickness of trabecular bone (Tbt), trabecular bone number (Tbn), and length of trabeculer bone (Tbl) were calculated using automated image analysis (analysis Image Processing; SIS, Germany) under magnification 200 (×200) of microscopy (Zeiss, Germany) in the epiphyseal regions of right tibia and/or femur. In addition, cortical bone thickness (Cbt) was measured in mid-shaft region of right tibia and femur. […] Trabecular bone volume was calculated as percentage levels. • B. Measurement of histomorphometric index of trabecular bone: Thickness of trabecular bone (Tbt), trabecular bone number (Tbn), and length of trabecular bone (Tbl) were calculated using automated image analysis in the epiphyseal regions of right tibia and/or femur. Tbt and Tbl were calculated as um levels, and Tbn were calculated as number/whole sectional part of epiphyseal regions levels. • C. Thickness of cortical bone (Cbt): Cortical bone thickness was detected in mid-shaft regions of right tibia and/or femur, and they were calculated using automated image analyzer at prepared histological samples.
# (§8) All data was calculated as mean±S.D. Statistical analyses was conducted using Mann-Whitney U-Wilcoxon Rank Sum W test (M-W test) with SPSS for Windows (Release 6.1.3., SPSS Inc., USA).
# [2] = tested on: sciatic nerve neurectomized ddY mice; test: Prophylactic effects in neurectomized ddY mouse model (immobilization osteoporosis); assay type: in vivo
# Excerpt: The effects of a drug would be based on histomorphometric changes of trabecular bone and thickness of cortical bone in this model.
# The objective of the present study is to observe the anti-osteoporotic potential of DW1350MSA, and administration of the drug was initiated 2 days after neurectomy for prophylaxis study.
# as §7, with “allocated to” for “allocated”, “were neurectomized” for “were ovariectomized”, “For the” for “For”, “initiated 2” for “initiated 3”, “after neurectomy” for “after ovariectomy”, “for 4” for “for 6”
# DW1350MSA was dissolved in injectable distilled water and administered at a dosage volume of 10 ml/kg by oral gavage. The administered dose and schedule of these drugs are shown as Table 12.
# 3) Operation • A. Sham operation: The right side of the sciatic nerve was exposed by incision of skin and hip muscles, (about 1 cm) after that closed by skin suture. • B. neurectomy: After exposure of the right side of the sciatic nerve, about 1 mm of sciatic nerve was removed. After that closed by routine methods. • C. Operation was conducted under Ketamine hydrochloride (M.W.=256.8; 23076-35-9, ICN Biochemicals Inc., USA) and Xylazine hydrochloride (M.W.=274.19; 116-00512, Wako Pure Chemical Industries Ltd., Japan) anesthesia.
# After that, embedded in paraffin, sectioned (3˜4 um) and stained with hematoxylin-eosin strain.
# Mid-shaft cortical bone of tibia, and trabecular bone volume % of tibia were evaluated. In addition, histological profiles of epiphyseal regions of right tibia and femur were also observed. • A. Measurement of trabecular bone volume (TBV) Trabecular bone volume was calculated using automated image analysis (analySIS Image Processing; SIS, Germany) under magnification […] (×200) of microscopy (Zeiss, Germany) in the uniform area of epiphyseal regions of the right tibia and/or femur (growth plate regions were excluded). Trabecular bone volume was calculated as percentage levels. • B. Thickness of cortical bone (Cbt): Cortical bone thickness was detected in mid-shaft regions of right tibia and/or femur, and they were calculated using an automated image analyzer (analysis Image Processing; SIS, Germany) under magnification 200 (×200) of microscopy (Zeiss, Germany) at prepared histological samples. The thickness was detected as um levels. • C.
# as §8
# [3] = 1000 nM in the presence of 100 nM LTB4 (FIGS. 6˜8), regimen not separated
# [4] = tibia and femur, DW1350MSA 10 and 50 mg/kg, Fosamax 10 mg/kg
# [5] = right tibia, Fosamax 1 mg/kg, DW1350MSA 10 and 50 mg/kg
# LTB4 receptor, sequence (Q15722 whole entry): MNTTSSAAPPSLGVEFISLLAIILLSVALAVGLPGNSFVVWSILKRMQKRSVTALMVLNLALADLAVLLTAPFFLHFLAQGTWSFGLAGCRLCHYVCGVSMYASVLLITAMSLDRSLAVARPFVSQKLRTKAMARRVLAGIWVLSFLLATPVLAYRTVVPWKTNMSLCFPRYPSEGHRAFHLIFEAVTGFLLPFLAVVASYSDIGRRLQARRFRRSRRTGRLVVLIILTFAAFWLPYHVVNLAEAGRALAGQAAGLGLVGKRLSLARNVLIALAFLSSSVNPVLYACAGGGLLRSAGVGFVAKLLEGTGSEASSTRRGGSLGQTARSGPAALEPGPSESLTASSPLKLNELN
structure (smiles),measurement,setting,value
CCc1cc(-c2ccc(F)cc2)c(O)cc1OCCCOc1ccc2c(=O)c3cc(C(=O)O)ccc3oc2c1CCC(=O)O [LY292728],LTB4-stimulated osteoclast formation,"[1]; pre-treatment 18 hrs, then 1000 nM compound + 100 nM LTB4 for 48 hrs, dentin slices",appeared to suppress the formation of osteoclasts
same,LTB4-stimulated osteoclast formation,"[1]; simultaneous treatment: 1000 nM compound + 100 nM LTB4, 48 hrs, dentin slices",significantly abolished osteoclast formation increased by LTB4
same,number of TRAP(+) MNCs / osteoclast formation,rabbit osteoclasts,no significant effect on osteoclast formation compared to the control culture
same,number of TRAP(+) MNCs,"rabbit osteoclasts; 10˜1000 nM, 48 hours, tissue culture dish, single treatment (FIG. 1, 2)",no significant effect on the number of osteoclasts
same,Ki,LTB4 receptor,0.5 nM
CCCc1c(OCCCOc2cc(O)c(-c3ccc(F)cc3)cc2CC)cccc1Oc1ccccc1C(=O)O [LY293111],LTB4-stimulated osteoclast formation,[1]; [3],significantly abolished LTB4-stimulated osteoclast formation
same,number of TRAP(+) MNCs / osteoclast formation,rabbit osteoclasts,did not change the number of osteoclasts
same,Ki,LTB4 receptor,25 nM
COc1ccc(/C=C/CCCCOc2ccc(C(=O)c3cccc(C(=O)O)c3)cc2CCC(=O)O)cc1 [LY223982],LTB4-stimulated osteoclast formation,[1]; [3],significantly abolished LTB4-stimulated osteoclast formation
same,number of TRAP(+) MNCs / osteoclast formation,rabbit osteoclasts,did not change the number of osteoclasts
same,IC50,LTB4 receptor,13 nM
"CCCCC/C=C\C[C@@H](O)/C=C/C=C/C=C\[C@@H](O)CCCC(=O)O [LTB4, leukotriene-B4]",increase in the number of TRAP-positive osteoclasts compared to the control group,"rabbit osteoclasts; 100 nM LTB4, 48 hours, dentin slices",30˜40% and 40%
O=C(O)/C=C/c1nc(CSc2c(Cl)cccc2Cl)ccc1OCCc1ccccc1 [SB209247],LTB4-stimulated osteoclast formation,[1]; [3],significantly abolished LTB4-stimulated osteoclast formation
same,number of TRAP(+) MNCs / osteoclast formation,rabbit osteoclasts,did not change the number of osteoclasts
"NCCCC(O)(P(=O)(O)O)P(=O)(O)O [Fosamax, Alendronate]",histological profiles of epiphyseal regions of right tibia and femur,ovariectomized ddY mice; FIG. 11,more numerous extended trabecular bones were demonstrated compared to that of Control
same,"Cbt, cortical bone thickness",ovariectomized ddY mice; right femur,53.00 ± 23.82 um
same,"TBV, trabecular bone volume",ovariectomized ddY mice; right femur,58.26 ± 5.77 %
same,"Tbl, trabecular bone length",ovariectomized ddY mice; right femur,460.80 ± 260.64 ## um
same,"Tbn, trabecular bone number",ovariectomized ddY mice; right femur,23.60 ± 2.97 # number/epiphyseal
same,"Tbt, trabecular bone thickness",ovariectomized ddY mice; right femur,33.00 ± 12.45 um
same,"Cbt, cortical bone thickness",ovariectomized ddY mice; right tibia,59.80 ± 15.55 um
same,"TBV, trabecular bone volume",ovariectomized ddY mice; right tibia,47.56 ± 7.23 # %
same,"Tbl, trabecular bone length",ovariectomized ddY mice; right tibia,550.00 ± 74.98 ## um
same,"Tbn, trabecular bone number",ovariectomized ddY mice; right tibia,12.60 ± 4.98 number/epiphyseal
same,"Tbt, trabecular bone thickness",ovariectomized ddY mice; right tibia,83.20 ± 39.86 # um
same,effect on decrease of Cbt induced by ovariectomy (summary in words),ovariectomized ddY mice; [4],no favorable effect to changes of Cbt
same,effect on increase of Ocn induced by ovariectomy (summary in words),ovariectomized ddY mice; [4],no favorable effect to changes of Ocn
same,TBV (%),"[2]; 1 mg/kg oral once a day for 4 weeks, epiphyseal regions of right tibia",21.81 ± 4.35 # %
same,Cbt (um),"[2]; 1 mg/kg oral once a day for 4 weeks, mid-shaft regions of right tibia",125.75 ± 36.01 um
same,histological profiles of epiphyseal regions,"[2]; FIG. 10, Hematoxylin-Eosin",more numerous extended trabecular bones were demonstrated compared to that of Control group
same,TBV % compared to control group (in words),[2]; [5],significantly (p<0.01) increased compared to that of the control group
same,cortical bone thickness compared to control group (in words),[2]; [5],significantly increased compared to that of the control group but significances were not demonstrated
